Where two headings read alike, the source gives them in different places.
Tests used:
[1] = test system: subjects with previously untreated multiple myeloma; experiment: Example 1 randomized open-label study, VMP vs MP: treatment-emergent peripheral neuropathy; conditions: human, in vivo, 54 weeks
Experimental: A randomized, open-label, multicenter study was conducted, consisting of 3 Phases: a Pre-randomization (Screening) Phase, an Open-label Treatment Phase, and a Post-treatment Phase. Approximately 680 subjects with previously untreated multiple myeloma were randomly assigned to one of two treatment groups and were stratified according to baseline β2-microglobulin, baseline albumin levels and region (North America, Europe, other). Subjects received either VELCADE™/Melphalan/Prednisone (VMP) (Treatment Group A) or Melphalan/Prednisone (MP) (Treatment Group B). Subjects in Treatment Group A received VELCADE™ 1.3 mg/m^2 (twice weekly [Weeks 1, 2, 4, and 5] for four 6-week cycles [8 doses per cycle] followed by once weekly [Weeks 1, 2, 4, and 5] for five 6-week cycles [4 doses per cycle]) in combination with melphalan 9 mg/m^2 and prednisone 60 mg/m^2 (once daily on Days 1 to 4 of each 6-week cycle). Subjects in Treatment Group B received 9 cycles of melphalan 9 mg/m^2 and prednisone 60 mg/m^2 once daily on Days 1 to 4 of each 6-week cycle. For both groups, treatment continued for a maximum of 9 cycles (54 weeks) and subjects were discontinued if disease progression or an unacceptable treatment-related toxicity occurred, or if a subject withdrew consent.
Included in the analysis are the 368 subjects who met all of the following criteria: consented to DNA analysis; had usable genotype data for SNPs listed in Appendix 1; had Adverse Event related clinical data before treatment and after at least one cycle of VELCADE™ treatment (including those having neurological events and those completing treatment with no neurological event). These 368 subjects included: Treatment Group A (154 Caucasian, 2 black, 10 Asian); Treatment Group B (168 Caucasian, 4 black, 12 Asian), and 18 were not treated.
The primary adverse event endpoints are the treatment-emergent peripheral neuropathies caused by VELCADE™, including peripheral neuropathy NEC, peripheral sensory neuropathy, and neuralgia. For each specific peripheral neuropathy endpoint, the null hypothesis was that none of the successfully genotyped SNPs is associated with this specific treatment-emergent peripheral neuropathy. Each successfully genotyped SNP is tested to see whether there is a difference in the distribution of the genotypes of this SNP between patients with and without this specific VELCADE™ treatment-emergent peripheral neuropathy. The test result is subsequently adjusted by total number of successfully genotyped SNPs to correct multiplicity. […]

[2] = test system: patients with newly diagnosed multiple myeloma; conditions: human, in vivo, 4 cycles
Experimental: A randomized, open-label, multicenter study was conducted that compared vincristine/adriamycin/dexamethasone (VAD) and VELCADE™/Dexamethasone as induction treatment prior to autologous hematopoietic stem cell transplantation (AHSCT) in patients up to (and including) the age of 65 with newly diagnosed multiple myeloma. Approximately 480 patients were included in this study. Subjects were randomized at diagnosis into one of 4 induction treatment arms: • A1 VAD (4 cycles) • A2 VAD (4 cycles) followed by Dexamethasone/cyclophosphomide/etoposide/cis-Platinum (DCEP) (2 cycles) • B1 VELCADE+dexamethasone (4 cycles) • B2 VELCADE+dexamethasone (4 cycles) followed by DCEP (2 cycles)
Randomization was stratified based on the initial β2 microglobulin level (> or ≦3 mg/l) and the presence of chromosome 13 abnormalities identified by fluorescence in situ hybridization (FISH) analysis. After induction treatment (Arms A1 and B1) or after consolidation treatment (Arms A2 and B2) all of the patients underwent AHSCT.
470 samples were sent to Illumina for genotyping on 2016 SNPs in 172 non-mitochondria genes. Out of the 470 samples, 29 samples are Hapmap control subjects, 3 samples are controls subjects from a Belgium family, and another 4 are samples from Example 1 for quality control. Therefore, there were totally 434 unique subjects from this study (103 in A1, 105 in A2, 111 in B1, 111 in B2 and 4 not treated).
After the quality control and filtering, 212 VELCADE treated subjects were included in the association analysis on non-mtSNPs.
Based on the raw p-values for the association tests, none of the significant associations identified in Example 1 were replicated in Example 2. […] Patients with homogenous genotype of the minor allele of rs4553808 (GG) tend to have earlier onset of peripheral neuropathy than those that contain only 1 or 0 copy of the minor allele (AA/AG): median time to onset was 68 days vs. 70 days.
The association with time and cumulative dosage of VELCADE™ to the onset of different levels of peripheral neuropathy in all 1908 SNPs in Example 2 was tested. No significant associations was identified after multiple testing correction using Bonfferoni (0.05/1908=2.62E-05).

patients = conditions: cited from earlier work
[3] = test system: patients with multiple myeloma; conditions: cited from earlier work

Which “onset of any peripheral neuropathy” value [1] does the source give for `CC(C)C[C@H](NC(=O)[C@H](Cc1ccccc1)NC(=O)c1cnccn1)B(O)O` [VELCADE, bortezomib] here?
Its value is 72 events.

What about the “onset of grade≧2 peripheral neuropathy” value [1] of the same molecule?
Its value is 50 events.

What about the “onset of grade≧3 peripheral neuropathy” value [1] of the same molecule?
Its value is 21 events.

And the “onset rate of peripheral neuropathy event” value [1]?
Its value is 51.8%.

And the Neuralgia [2]?
The Neuralgia was 9 cases.

And the “any one of the three adverse events (AE3)” value [2]?
The value was 51 cases.

What about the “onset rate of peripheral neuropathy event” value [2] of the same molecule?
The value was 44.8%.

What about the “peripheral neuropathy NEC” value [2] of the same molecule?
The value was 44 cases.

What about the peripheral sensory neuropathy [2] of the same molecule?
Its peripheral sensory neuropathy is 8 cases.

And the “treatment cycle at which peripheral neuropathy reaches a plateau” value (patients; in vivo)?
The value was 5 cycle.

What about the “mean rating of associated pain” value (patients; scale of 0 for no pain and 10 for worst imaginable pain) of the same molecule?
The value was 7.8.

And the “patients with improvement or resolution of peripheral neuropathy” value ([3]; after dose discontinuation, patients discontinuing due to Grade 2 PN or who had >Grade 3 PN)?
The value was 73%.

What about the “patients with improvement or resolution of peripheral neuropathy” value ([3]; after dose reduction, patients with >Grade 2 PN) of the same molecule?
Its value is 51%.

— US9605317B2, “Biomarkers for assessing peripheral neuropathy response to cancer treatment” (Janssen Pharmaceutica NV, priority 2009, dated 2017)
